Measured values as given in ChEMBL document CHEMBL5137015, “Design, synthesis, and evaluation of a novel series of mono-indolylbenzoquinones derivatives for the potential treatment of breast cancer” (Eur J Med Chem, 2022).
Calls of active or inactive are those of the source. The rule behind the calls is not given here.

Experiments:
A549 = assay: Antiproliferative activity against human A549 cells assessed as inhibition of cell growth by MTT assay; type: functional, cell-based
HeLa = assay: Antiproliferative activity against human HeLa cells assessed as inhibition of cell growth by MTT assay; type: functional, cell-based
MDA-MB-231 [1] = assay: Antiproliferative activity against human MDA-MB-231 cells assessed as inhibition of cell growth by MTT assay; type: functional, cell-based
MDA-MB-231 [2] = assay: Induction of apoptosis in human MDA-MB-231 cells assessed as apoptotic cells at 10 uM incubated for 24 hrs by Annexin V-FITC/propidium iodide staining based flow cytometric method (reference value: 5.68%); type: functional
MDA-MB-231 [3] = assay: Induction of cell cycle arrest in human MDA-MB-231 cells assessed as decrease in G1 phase cells at 10 uM incubated for 24 hrs by PI staining based flow cytometric analysis (reference value: 74.44%); type: functional; design: scale not given: the % may be the effect or the level left
MDA-MB-231 [4] = assay: Induction of cell cycle arrest in human MDA-MB-231 cells assessed as increase in G2 phase cells at 10 uM incubated for 24 hrs by PI staining based flow cytometric analysis (reference value: 8.95%); type: functional
MDA-MB-231 [5] = assay: Induction of cell cycle arrest in human MDA-MB-231 cells assessed as decrease in S phase cells at 10 uM incubated for 24 hrs by PI staining based flow cytometric analysis (reference value: 16.61%); type: functional; design: scale not given: the % may be the effect or the level left
[6] = Toxicity in Balb/c mouse implanted with mouse 4T1 cells assessed as kidney lesions at 50 mg/kg administered intratumorally every four days for 14 days in the presence of liquid cyanoacrylate by H&E staining based histopathological analysis; type: organism-based; conditions: in vivo, other, 336 h, route it(Intratumoral), time 14 day
4T1 [7] = assay: Antitumor activity against mouse 4T1 cells implanted in Balb/c mouse assessed as apoptotic rate of dissected tumor cell at 50 mg/kg administered intratumorally every four days for 14 days in the presence of liquid cyanoacrylate by flow cytometric analysis (reference value: 64.83%); type: functional; conditions: route it(Intratumoral), time 14 day
4T1 [8] = assay: Antitumor activity against mouse 4T1 cells implanted in Balb/c mouse assessed as tumor growth inhibition at 50 mg/kg administered intratumorally every four days for 14 days in the presence of liquid cyanoacrylate relative to control; type: functional; conditions: 4T1, 336 h, route it(Intratumoral), time 14 day, read-out: TGI
4T1 [9] = assay: Antitumor activity against mouse 4T1 cells implanted in Balb/c mouse assessed as nuclei disappearance at 50 mg/kg administered intratumorally every four days for 14 days in the presence of liquid cyanoacrylate; type: functional, organism-based; conditions: route it(Intratumoral), time 14.0 day
[10] = Toxicity in Balb/c mouse implanted with mouse 4T1 cells assessed as heart lesions at 50 mg/kg administered intratumorally every four days for 14 days in the presence of liquid cyanoacrylate by H&E staining based histopathological analysis; type: organism-based; conditions: in vivo, other, 336 h, route it(Intratumoral), time 14 day
[11] = Toxicity in Balb/c mouse implanted with mouse 4T1 cells assessed as lung lesions at 50 mg/kg administered intratumorally every four days for 14 days in the presence of liquid cyanoacrylate by H&E staining based histopathological analysis; type: organism-based; conditions: in vivo, other, 336 h, route it(Intratumoral), time 14 day
4T1 [12] = assay: Antitumor activity against mouse 4T1 cells implanted in Balb/c mouse assessed as TUNEL positive cells at 50 mg/kg administered intratumorally every four days for 14 days in the presence of liquid cyanoacrylate by TUNEL staining analysis; type: functional; conditions: route it(Intratumoral), time 14 day
4T1 [13] = assay: Antitumor activity against mouse 4T1 cells implanted in Balb/c mouse assessed as tumor growth inhibition by measuring T/C ratio at 50 mg/kg administered intratumorally every four days for 14 days in the presence of liquid cyanoacrylate; type: functional; conditions: route it(Intratumoral), time 14 day
Mus musculus = assay: Protection of Balb/c mouse spleen implanted with mouse 4T1 cells at 50 mg/kg administered intratumorally every four days for 14 days in the presence of liquid cyanoacrylate; type: functional, organism-based; conditions: route it(Intratumoral), time 14.0 day
[14] = Toxicity in Balb/c mouse implanted with mouse 4T1 cells assessed as liver lesions at 50 mg/kg administered intratumorally every four days for 14 days in the presence of liquid cyanoacrylate by H&E staining based histopathological analysis; type: organism-based; conditions: in vivo, other, 336 h, route it(Intratumoral), time 14 day
[15] = Toxicity in Balb/c mouse implanted with mouse 4T1 cells assessed as spleen lesions at 50 mg/kg administered intratumorally every four days for 14 days in the presence of liquid cyanoacrylate by H&E staining based histopathological analysis; type: organism-based; conditions: in vivo, other, 336 h, route it(Intratumoral), time 14 day

Row | Compound | IC50 (A549) | IC50 (HeLa) | IC50 (MDA-MB-231 [1]) | further results
1 | Cc1[nH]c2ccccc2c1C1=C(Cl)C(=O)C(Cl)=C(NCCOc2ccccc2)C1=O | > 10 µM | > 10 µM | 0.71 µM | –
2 | COc1ccc(CCNC2=C(Cl)C(=O)C(Cl)=C(c3c(C)[nH]c4ccccc34)C2=O)cc1OC | 8.64 µM | 9.73 µM | 1.49 µM | –
3 | Cn1c(CCCC(=O)O)nc2cc(N(CCCl)CCCl)ccc21 [BENDAMUSTINE] | – | > 20 µM | – | –
4 | COc1ccc(/C=C\c2cc(OC)c(OC)c(OC)c2)cc1O [COMBRETASTATIN A4] | – | – | – | Activity (MDA-MB-231 [2]): 25.55%; Activity (MDA-MB-231 [3]): 8.4%; Activity (MDA-MB-231 [4]): 91.6%; Activity (MDA-MB-231 [5]): 8%
5 | O=C1c2c(O)ccc(O)c2C(=O)c2c(NCCNCCO)ccc(NCCNCCO)c21 [MITOXANTRONE] | – | – | – | Activity [6]: Non-Toxic; Activity (4T1 [7]): 77.86%; inhibition in vivo at 50 mg/kg (4T1 [8]): 59.8%; Activity (4T1 [9]): Active; Activity [10]: Non-Toxic; Activity [11]: Non-Toxic; Activity (4T1 [12]): 93.24%; T/C (4T1 [13]): 32%; Activity (Mus musculus): Active; Activity [14]: Non-Toxic; Activity [15]: Non-Toxic
6 | COC(=O)/C=C/C(=O)OCCN1CCN(C2=C(Cl)C(=O)C(Cl)=C(c3c(C)[nH]c4ccccc34)C2=O)CC1 | 8.38 µM | 0.22 µM | 0.26 µM | –
7 | Cc1[nH]c2ccccc2c1C1=C(Cl)C(=O)C(Cl)=C(NCCc2cc3ccccc3[nH]2)C1=O | > 10 µM | > 10 µM | 0.62 µM | –

Further lines, with some results ahead:

Row | IC50 (A549) | IC50 (HeLa) | IC50 (MDA-MB-231 [1]) | Compound | further results
8 | 0.44 µM | 3.11 µM | 0.83 µM | Cc1[nH]c2ccccc2c1C1=C(Cl)C(=O)C(NCCc2cc3ccccc3[nH]2)=C(Cl)C1=O | –
9 | 0.17 µM | 0.35 µM | 0.12 µM | Cc1[nH]c2ccccc2c1C1=C(Cl)C(=O)C(Cl)=C(N2CCN(C=O)CC2)C1=O | –
10 | 0.34 µM | 0.11 µM | 0.14 µM | COC(=O)/C=C/C(=O)OCCNC1=C(Cl)C(=O)C(Cl)=C(c2c(C)[nH]c3ccccc23)C1=O | –
11 | 0.16 µM | 0.19 µM | 0.19 µM | C#CCNC1=C(Cl)C(=O)C(Cl)=C(c2c(C)[nH]c3ccccc23)C1=O | –
12 | 0.15 µM | 0.22 µM | 0.11 µM | COC(=O)/C=C/C(=O)OCCNC1=C(Cl)C(=O)C(c2c(C)[nH]c3ccccc23)=C(Cl)C1=O | –
13 | 7.09 µM | 5.05 µM | 0.73 µM | Cc1[nH]c2ccccc2c1C1=C(Cl)C(=O)C(NCCOc2ccccc2)=C(Cl)C1=O | –
14 | 0.17 µM | 0.25 µM | 0.2 µM | Cc1[nH]c2ccccc2c1C1=C(Cl)C(=O)C(N2CCOCC2)=C(Cl)C1=O | Activity (MDA-MB-231 [2]): 31.74%; Activity (MDA-MB-231 [3]): 10.44%; Activity (MDA-MB-231 [4]): 81.89%; Activity (MDA-MB-231 [5]): 7.67%
15 | 0.32 µM | 0.33 µM | 0.14 µM | COC(=O)/C=C/C(=O)OCCN1CCN(C2=C(Cl)C(=O)C(c3c(C)[nH]c4ccccc34)=C(Cl)C2=O)CC1 | –
16 | 0.72 µM | 6.3 µM | 0.29 µM | COc1ccc(CCNC2=C(Cl)C(=O)C(c3c(C)[nH]c4ccccc34)=C(Cl)C2=O)cc1OC | –
17 | 0.37 µM | 0.74 µM | 0.2 µM | Cc1[nH]c2ccccc2c1C1=C(Cl)C(=O)C(N2CCN(C=O)CC2)=C(Cl)C1=O | –
18 | 0.67 µM | 0.92 µM | 0.17 µM | C#CCNC1=C(Cl)C(=O)C(c2c(C)[nH]c3ccccc23)=C(Cl)C1=O | –
